Numbers after ± are expanded uncertainties.
Test: molar heat capacity at constant pressure; xn = mol fraction of the nth substance listed
Details: 101 kPa, Liquid, Small sample (50 mg) DSC

N#Cc1ccccc1 [benzonitrile] + CCCCCCCC
molar heat capacity at constant pressure [J/K/mol]
Details | 283.15 K | 288.15 K | 293.15 K | 298.15 K | 303.15 K | 308.15 K | 313.15 K | 318.15 K
x1 = 0.0219 | 246.32 ± 4.9 | 248.19 ± 5 | 250.11 ± 5 | 252.1 ± 5 | 254.14 ± 5.1 | 256.24 ± 5.1 | 258.38 ± 5.2 | 260.56 ± 5.2
x1 = 0.0576 | 243.69 ± 4.9 | 245.52 ± 4.9 | 247.38 ± 5 | 249.32 ± 5 | 251.3 ± 5 | 253.34 ± 5.1 | 255.43 ± 5.1 | 257.56 ± 5.2
x1 = 0.1021 | 240.66 ± 4.8 | 242.38 ± 4.8 | 244.17 ± 4.9 | 246 ± 4.9 | 247.92 ± 5 | 249.87 ± 5 | 251.88 ± 5 | 253.94 ± 5.1
x1 = 0.1999 | 234.51 ± 4.7 | 235.9 ± 4.7 | 237.41 ± 4.8 | 239.04 ± 4.8 | 240.74 ± 4.8 | 242.5 ± 4.8 | 244.34 ± 4.9 | 246.23 ± 4.9
x1 = 0.2998 | 229.04 ± 4.6 | 229.53 ± 4.6 | 230.52 ± 4.6 | 231.82 ± 4.6 | 233.28 ± 4.7 | 234.82 ± 4.7 | 236.47 ± 4.7 | 238.12 ± 4.8
x1 = 0.4002 | 224.38 ± 4.5 | 222.59 ± 4.5 | 223.06 ± 4.5 | 224.03 ± 4.5 | 225.26 ± 4.5 | 226.66 ± 4.5 | 228.12 ± 4.6 | 229.73 ± 4.6
x1 = 0.4637 | 219.83 ± 4.4 | 217.33 ± 4.3 | 217.69 ± 4.3 | 218.58 ± 4.4 | 219.78 ± 4.4 | 221.13 ± 4.4 | 222.51 ± 4.5 | –
x1 = 0.5001 | 215.93 ± 4.3 | 213.9 ± 4.3 | 214.32 ± 4.3 | 215.28 ± 4.3 | 216.5 ± 4.3 | 217.77 ± 4.4 | 219.26 ± 4.4 | 220.74 ± 4.4
x1 = 0.6001 | 203.15 ± 4.1 | 203.61 ± 4.1 | 204.57 ± 4.1 | 205.76 ± 4.1 | 207.09 ± 4.1 | 208.41 ± 4.2 | 209.85 ± 4.2 | 211.38 ± 4.2
x1 = 0.7003 | 192.17 ± 3.8 | 193.38 ± 3.9 | 194.65 ± 3.9 | 195.97 ± 3.9 | 197.33 ± 4 | 198.73 ± 4 | 200.16 ± 4 | 201.61 ± 4
x1 = 0.7999 | 182.68 ± 3.6 | 183.92 ± 3.7 | 185.2 ± 3.7 | 186.53 ± 3.7 | 187.88 ± 3.8 | 189.25 ± 3.8 | 190.63 ± 3.8 | 192.02 ± 3.8
x1 = 0.9 | 173.26 ± 3.5 | 174.47 ± 3.5 | 175.71 ± 3.5 | 176.98 ± 3.5 | 178.27 ± 3.6 | 179.58 ± 3.6 | 180.92 ± 3.6 | 182.23 ± 3.6
x1 = 0.95 | 168.41 ± 3.4 | 169.62 ± 3.4 | 170.83 ± 3.4 | 172.09 ± 3.4 | 173.36 ± 3.5 | 174.65 ± 3.5 | 175.96 ± 3.5 | 177.25 ± 3.5
x1 = 0.9801 | 165.44 ± 3.3 | 166.62 ± 3.3 | 167.83 ± 3.4 | 169.07 ± 3.4 | 170.34 ± 3.4 | 171.61 ± 3.4 | 172.89 ± 3.5 | 174.17 ± 3.5
x1 = 1 | 163.43 ± 3.3 | 164.61 ± 3.3 | 165.82 ± 3.3 | 167.06 ± 3.3 | 168.32 ± 3.4 | 169.59 ± 3.4 | 170.87 ± 3.4 | 172.15 ± 3.4
